Measured values reported in ChEMBL document CHEMBL5357036, “Latest developments in coumarin-based anticancer agents: mechanism of action and structure-activity relationship studies” (RSC Med Chem, 2024).
Values after ≈ are worked out from the molar mass of the structure shown. Blank lines part the entries; values can stand above or below the compound they belong to.

Columns and labels:
A549 [1] = assay: Antiproliferative activity against human A549 cells assessed as cell growth inhibition measured after 48 hrs by MTT assay; format: functional, cell-based; settings: A549, 48 h
HT-29 = assay: Antiproliferative activity against human HT-29 cells assessed as cell growth inhibition measured after 48 hrs by MTT assay; format: functional, cell-based; settings: HT-29, 48 h
HeLa [2] = assay: Cytotoxicity against human HeLa cells assessed as reduction in cell growth by MTT assay; format: functional, cell-based
HCT-116 [3] = assay: Cytotoxicity against human HCT-116 cells assessed as reduction in cell growth measured after 48 hrs by MTT assay; format: functional, cell-based; settings: HCT-116, 48 h
MCF7 [4] = assay: Cytotoxicity against human MCF7 cells assessed as inhibition of cell growth by resazurin microplate assay; format: functional, cell-based
[5] = molecular target: Cyclin-dependent kinase inhibitor 1 (p21) (human) (UniProt P38936); assay: Upregulation of p21 gene expression in human HeLa cells assessed fold increase by RT-PCR analysis
[6] = molecular target: ALK tyrosine kinase receptor (Homo sapiens, UniProt Q9UM73, L1196M); assay: Inhibition of ALK L1196M mutant (unknown origin)
Sequence of ALK tyrosine kinase receptor (Homo sapiens, UniProt Q9UM73, L1196M) (Q9UM73 19-1620 L1196M limits assumed): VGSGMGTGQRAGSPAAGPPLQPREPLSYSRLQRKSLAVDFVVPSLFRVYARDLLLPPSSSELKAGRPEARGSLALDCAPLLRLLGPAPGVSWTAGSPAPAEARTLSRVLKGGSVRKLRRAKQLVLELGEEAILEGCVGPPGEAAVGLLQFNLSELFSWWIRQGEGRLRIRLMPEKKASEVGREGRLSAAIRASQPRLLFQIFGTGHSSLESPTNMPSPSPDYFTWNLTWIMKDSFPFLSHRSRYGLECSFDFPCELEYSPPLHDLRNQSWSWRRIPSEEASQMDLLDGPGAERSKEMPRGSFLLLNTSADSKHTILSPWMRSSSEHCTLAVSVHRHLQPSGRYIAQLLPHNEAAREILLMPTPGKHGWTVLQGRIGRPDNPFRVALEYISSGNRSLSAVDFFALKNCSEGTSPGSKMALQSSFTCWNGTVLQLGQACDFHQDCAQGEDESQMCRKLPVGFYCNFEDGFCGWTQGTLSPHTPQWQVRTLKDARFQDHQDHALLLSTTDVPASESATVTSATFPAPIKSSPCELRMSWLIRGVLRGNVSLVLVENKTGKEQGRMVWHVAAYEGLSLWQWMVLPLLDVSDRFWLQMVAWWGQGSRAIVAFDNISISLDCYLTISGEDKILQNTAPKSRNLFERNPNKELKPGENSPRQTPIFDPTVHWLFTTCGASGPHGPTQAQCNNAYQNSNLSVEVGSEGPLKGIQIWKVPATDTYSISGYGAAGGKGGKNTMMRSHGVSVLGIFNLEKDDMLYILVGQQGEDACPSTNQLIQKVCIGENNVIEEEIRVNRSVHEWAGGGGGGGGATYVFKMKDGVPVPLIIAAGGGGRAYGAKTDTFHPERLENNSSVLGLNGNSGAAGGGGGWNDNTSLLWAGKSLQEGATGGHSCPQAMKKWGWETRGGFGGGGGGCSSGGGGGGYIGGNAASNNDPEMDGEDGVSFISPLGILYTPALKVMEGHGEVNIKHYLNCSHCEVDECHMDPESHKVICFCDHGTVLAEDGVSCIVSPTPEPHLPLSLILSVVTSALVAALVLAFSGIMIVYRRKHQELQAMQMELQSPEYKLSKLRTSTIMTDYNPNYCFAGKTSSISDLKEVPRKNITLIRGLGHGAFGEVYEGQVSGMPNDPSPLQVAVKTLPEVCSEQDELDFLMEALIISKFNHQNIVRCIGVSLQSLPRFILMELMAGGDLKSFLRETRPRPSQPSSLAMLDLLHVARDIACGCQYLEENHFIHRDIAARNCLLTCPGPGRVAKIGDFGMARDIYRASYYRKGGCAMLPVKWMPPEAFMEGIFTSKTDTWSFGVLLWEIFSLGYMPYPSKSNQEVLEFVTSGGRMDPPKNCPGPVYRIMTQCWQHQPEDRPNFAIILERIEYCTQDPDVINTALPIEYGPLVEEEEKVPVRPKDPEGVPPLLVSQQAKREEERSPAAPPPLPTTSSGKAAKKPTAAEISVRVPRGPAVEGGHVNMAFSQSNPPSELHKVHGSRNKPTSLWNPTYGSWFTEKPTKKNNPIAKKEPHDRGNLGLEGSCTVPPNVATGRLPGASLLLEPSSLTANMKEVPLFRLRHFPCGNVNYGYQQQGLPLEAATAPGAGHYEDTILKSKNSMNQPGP

[7] = molecular target: ALK tyrosine kinase receptor (Homo sapiens, UniProt Q9UM73, G1269A); assay: Inhibition of ALK G1269A mutant (unknown origin)
Sequence of ALK tyrosine kinase receptor (Homo sapiens, UniProt Q9UM73, G1269A) (Q9UM73 19-1620 G1269A limits assumed): as the sequence (Q9UM73 19-1620 L1196M limits assumed) above, with M1178L, G1251A counted along it

[8] = molecular target: ALK tyrosine kinase receptor (Homo sapiens, UniProt Q9UM73, G1202R); assay: Inhibition of ALK G1202R mutant (unknown origin)
Sequence of ALK tyrosine kinase receptor (Homo sapiens, UniProt Q9UM73, G1202R) (Q9UM73 19-1620 G1202R limits assumed): as the sequence (Q9UM73 19-1620 L1196M limits assumed) above, with M1178L, G1184R counted along it

MCF7 [9] = assay: Cytotoxicity against human MCF7 cells assessed as reduction in cell growth measured after 48 hrs by MTT assay; format: functional, cell-based; settings: MCF7, 48 h
HeLa [10] = assay: Cytotoxicity against human HeLa cells assessed as reduction in cell growth measured after 48 hrs by MTT assay; format: functional, cell-based
A549 [11] = assay: Cytotoxicity against human A549 cells assessed as reduction in cell growth measured after 48 hrs by MTT assay; format: functional, cell-based; settings: A549, 48 h
DU-145 [12] = assay: Anticancer activity against human DU-145 cells assessed as cell growth inhibition by MTT assay; format: functional, cell-based
DU-145 [13] = assay: Anticancer activity against human DU-145 cells assessed as cell growth inhibition measured after 48 hrs by MTT assay; format: functional, cell-based; settings: DU-145, 48 h
B16-F10 = assay: Cytotoxicity against mouse B16F10 cells assessed as reduction in cell viability incubated for 48 hrs by MTT assay; format: functional, cell-based; settings: B16-F10, 48 h
HeLa [14] = assay: Cytotoxicity against human HeLa cells assessed as growth inhibition measured after 48 hrs by MTT assay; format: functional, cell-based
MDA-MB-231 [15] = assay: Cytotoxicity against human MDA-MB-231 cells assessed as cell growth inhibition by SRB assay; format: functional, cell-based
MDA-MB-231 [16] = assay: Cytotoxicity against human MDA-MB-231 cells assessed as cell growth inhibition incubated for 72 hrs by MTT colorimetric assay; format: functional, cell-based; settings: MDA-MB-231, 72 h
A549 [17] = assay: Cytotoxicity against human A549 cells assessed as cell growth inhibition incubated for 72 hrs by MTT colorimetric assay; format: functional, cell-based; settings: A549, 72 h
K562 = assay: Cytotoxicity against human K562 cells assessed as cell growth inhibition incubated for 72 hrs by MTT colorimetric assay; format: functional, cell-based; settings: K562, 72 h
HeLa [18] = assay: Cytotoxicity against human HeLa cells assessed as cell growth inhibition incubated for 72 hrs by MTT colorimetric assay; format: functional, cell-based
HepG2 [19] = assay: Antiproliferative activity against human HepG2 cells assessed as reduction in cell viability measured after 48 hrs by MTT assay; format: functional, cell-based; settings: HepG2, 48 h
MCF7 [20] = assay: Antiproliferative activity against human MCF7 cells assessed as reduction in cell viability measured after 48 hrs by MTT assay; format: functional, cell-based; settings: MCF7, 48 h
HeLa [21] = assay: Antiproliferative activity against human HeLa cells assessed as reduction in cell viability; format: functional, cell-based
SW-620 = assay: Anticancer activity against human SW620 cells assessed as reduction in cell viability measured after 72 hrs by MTT assay; format: functional, cell-based; settings: SW-620, 72 h
HCT-116 [22] = assay: Anticancer activity against human HCT-116 cells assessed as reduction in cell viability measured after 72 hrs by MTT assay; format: functional, cell-based; settings: HCT-116, 72 h
MCF7 [23] = assay: Cytotoxicity against human MCF7 cells assessed as cell growth inhibition by SRB assay; format: functional, cell-based
MDA-MB-231 [24] = assay: Antiproliferative activity against human MDA-MB-231 cells assessed as cell growth inhibition measured after 48 hrs by MTT assay; format: functional, cell-based; settings: MDA-MB-231, 48 h
MDA-MB-468 = assay: Anticancer activity against human MDA-MB-468 cells assessed as reduction in cell viability incubated for 48 hrs by MTT assay; format: functional, cell-based; settings: MDA-MB-468, 48 h
HCC1937 = assay: Anticancer activity against human HCC1937 cells assessed as reduction in cell growth incubated for 48 hrs by MTT assay; format: functional, cell-based; settings: HCC1937, 48 h
MDA-MB-231 [25] = assay: Anticancer activity against human MDA-MB-231 cells assessed as reduction in cell viability incubated for 48 hrs by MTT assay; format: functional, cell-based; settings: MDA-MB-231, 48 h
Hs-578T = assay: Anticancer activity against human Hs-578T cells assessed as cell growth inhibition by MTT assay; format: functional, cell-based
HeLa [26] = assay: Growth inhibition of human HeLa cells incubated for 48 hrs by MTT assay; format: functional
HepG2 [27] = assay: Antiproliferative activity against human HepG2 cells assessed as reduction in cell viability incubated for 72 hrs by MTT assay; format: functional, cell-based; settings: HepG2, 72 h
Vero = assay: Cytotoxicity against African green monkey Vero cells incubated for 24 hrs by CellTiter-Glo assay; format: toxicity, cell-based, Chlorocebus sabaeus

IC50 (A549 [1]): 5.18 µM | IC50 (HT-29): 23.1 µM
Compound: O=c1oc2ccccc2cc1-c1nc(Nc2c3ccccc3nc3ccc(F)cc23)cs1

Compound: Cc1c(Cc2ccc(NC(=O)Nc3cccc(Cl)c3)nc2)c(=O)oc2cc(O)c(C(C)(C)C)cc12
IC50 (HeLa [2]): 2170 nM

Compound: COc1ccc(-c2cc(-c3cc4ccccc4oc3=O)nc(N)c2C#N)cc1
IC50 (HCT-116 [3]): 9.9 µM | IC50 (MCF7 [4]): 14.1 µM

Compound: CCOC(=O)c1sc(N/N=C(\C)c2cc3ccccc3oc2=O)nc1C
fold change (FC) [5]: 2.3

IC50 [6]: 270 nM | IC50 [7]: 300 nM | IC50 [8]: 590 nM
Compound: COc1ccc2nc(-c3cc4ccc(N5CCOCC5)cc4oc3=O)sc2c1

Compound: COc1ccc2oc(=O)c(/C=C3\SC(=O)N(C(=O)c4ccc(Cl)cc4)C3=O)cc2c1
IC50 (MCF7 [9]): 950 nM | IC50 (HeLa [10]): 950 nM | IC50 (A549 [11]): 950 nM

IC50 (DU-145 [12]): 7 µM
Compound: CC(C)(C)c1cc(C(C)(C)C)c2oc(=O)c(-c3csc(-n4nc(-c5ccccc5)cc4N)n3)cc2c1

IC50 (DU-145 [13]): 20.9 µM
Compound: O=c1oc2ccccc2c2c1nc(-c1ccc(C(F)(F)F)cc1)c1occc12
IC50 (B16-F10): 13 µM

Compound: CCCCOc1ccc2cc(C(=O)NNC(=O)c3c(C)oc4nc(NCCC)n(-c5ccc(C)cc5)c(=O)c34)c(=O)oc2c1
IC50 (HeLa [14]): 6.47 µM

Compound: COc1ccc(-n2nc(C)n(-n3c(-c4cc5ccccc5oc4=O)cs/c3=N\c3ccc(Cl)cc3)c2=O)cc1
IC50 (MDA-MB-231 [15]): 160 nM | IC50 (MDA-MB-231 [16]): 160 nM | IC50 (A549 [17]): 170 nM | IC50 (K562): 310 nM | IC50 (HeLa [18]): 250 nM

IC50 (HepG2 [19]): 5.5 µM | IC50 (MCF7 [20]): 6.9 µg/mL (≈ 17.2 µM)
Compound: N#Cc1c(NN)nc(SCc2cc(=O)oc3ccccc23)nc1-c1ccccc1

IC50 (HeLa [21]): 9 nM
Compound: CCOC(=O)c1sc(N/N=C(\C)c2cc3cc(Br)ccc3oc2=O)nc1C

IC50 (SW-620): 1860 nM | IC50 (HCT-116 [22]): 3.46 µM
Compound: O=C(OCC#CCOc1no[n+]([O-])c1S(=O)(=O)c1ccccc1)c1cc2ccccc2oc1=O

Compound: Cc1c(-c2csc(N)n2)c(=O)oc2cc(OC(C)(C)C(=O)O)ccc12
IC50 (MDA-MB-231 [15]): 4840 nM | IC50 (MCF7 [23]): 2390 nM

IC50 (MDA-MB-231 [24]): 8.03 µM
Compound: COc1ccc2nc3ccccc3c(Nc3csc(-c4cc5ccccc5oc4=O)n3)c2c1

Compound: O=c1oc2ccccc2c(O)c1C(c1ccc(O)cc1O)c1c(O)c2ccccc2oc1=O
IC50 (MDA-MB-468): 15.2 µM | IC50 (HCC1937): 20.2 µM | IC50 (MDA-MB-231 [25]): 25.3 µM | IC50 (Hs-578T): 25.7 µM

GI50 (HeLa [26]): 23.4 µg/mL (≈ 67.5 µM)
Compound: O=c1cc(-c2nccc3c2[nH]c2ccccc23)c2cc(Cl)ccc2o1

IC50 (HepG2 [27]): 12.8 µM
Compound: O=c1cc(OCc2cc(-c3cc4c(cc3Cl)OCO4)no2)c2cc(Cl)ccc2o1
IC50 (Vero): 144 µM
